Reference: patent US12454525B2, “IL4I1 inhibitors and methods of use” (Merck Sharp & Dohme LLC, priority 2020, dated 2025)

molecular target: T1, recombinant IL4I1 (Homo sapiens, UniProt Q96RQ9); experiment: IL4I1 Enzymatic Assay (Amplex Red/HRP coupled H2O2 detection); assay type: biochemical; settings: 240 min; four-hour pre-incubation with compound; 1 nM IL4I1, 1 mM each Phe/Tyr/Trp; ten-point titration; fluorescence readout; read-out: Potency EC50 (nM) (240 min)
T1 construct: purchased R&D Systems 5684-AO-020
T1 sequence (Q96RQ9 22-567): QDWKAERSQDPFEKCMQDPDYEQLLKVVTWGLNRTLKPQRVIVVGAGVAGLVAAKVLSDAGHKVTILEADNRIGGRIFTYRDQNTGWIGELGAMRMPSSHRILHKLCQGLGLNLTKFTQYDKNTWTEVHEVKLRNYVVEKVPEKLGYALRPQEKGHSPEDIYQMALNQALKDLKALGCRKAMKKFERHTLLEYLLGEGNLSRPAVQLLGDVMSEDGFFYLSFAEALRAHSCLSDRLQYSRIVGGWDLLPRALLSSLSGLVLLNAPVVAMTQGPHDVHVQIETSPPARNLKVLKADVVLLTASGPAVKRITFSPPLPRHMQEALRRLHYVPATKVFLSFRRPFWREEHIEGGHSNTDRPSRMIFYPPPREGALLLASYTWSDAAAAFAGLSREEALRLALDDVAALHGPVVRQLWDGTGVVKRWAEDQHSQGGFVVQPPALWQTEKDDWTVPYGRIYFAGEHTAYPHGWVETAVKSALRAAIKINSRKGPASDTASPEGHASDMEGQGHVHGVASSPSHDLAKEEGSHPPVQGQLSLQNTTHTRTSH
Experimental: Interleukin 4 inducible protein 1 (IL4I1) is an L-amino oxidase that catalyzes the oxidation of aromatic residues (Phe, Trp and Tyr): L-amino acid+H2O+O2→2-oxo acid+NH3+H2O2. Equal molar of H2O2 and the corresponding alpha-ketoacid are produced when IL4I1 and substrate are added. In this assay, the hydrogen peroxide generated by IL4I1 is then detected through a coupled reaction with Amplex Red (10-acetyl-3,7-dihydroxyphenoxazine) and […] (HRP) to produce Resorufin product that could be detected in the form of fluorescence signals. The assessment of the inhibitory effect of small molecules (EC50) on IL4I1 is measured by the effectiveness of the compounds to inhibit the production of H2O2.
Using this assay, the potency (EC50) of each compound was determined from a ten-point (1:3 serial dilution) titration curve using the following outlined procedure. To each well of a black flat-bottom Greiner (Cat #781076) 384 well-plate, 25 nL of compound (0.1% DMSO in final assay volume of 25 μL) was dispensed, followed by the addition of 12.5 μL of 1x assay buffer (50 mM Hepes 7.0 and 0.005% Tween20 (Sigma, Cat #P8341; low peroxide grade)) containing 2 nM of recombinant IL4I1 (R&D Systems, Cat #5684-AO-020). Plates were placed in an ambient temperature humidified chamber for a four-hour pre-incubation with compound. Subsequently, each reaction was initiated by the addition of 12.5 μL 1x assay buffer containing 2 mM of each aromatic amino acids (Phe/Tyr/Trp), 0.1 mM Amplex Red and 2 U/mL of HRP. The final reaction in each well of 25 μL consists of 1 nM of IL411, 1 mM of each residues (Phe, Tyr and Trp), 0.05 mM Amplex Red and 1 U/mL of HRP. It should be noted that the concentrations of Amplex Red and HRP used here are in excess such that the conversion of H2O2 to Resorufin product occurs instantaneously and non-rate limiting. Reactions were allowed to proceed for 120 minutes followed by fluorescence readout on a Spectramax with the following set parameters: 544 nm excitation/590 nm emission, 570 nm cutoff (EnVision is an alternative reader). Dose-response curves were generated by plotting percent effect (% product conversion; Y-axis) vs. Log10 compound concentrations (X-axis). EC50 values were calculated using a non-linear regression, four-parameters sigmoidal dose-response model and are shown in Table 16.

Compound | EC50 [nM]
COc1cc(Cn2c(=O)[nH]c3ccccc32)ccc1CNC(C)=O [Example 7, N-({2-methoxy-4-[(2-oxo-2,3-dihydro-1H-benzimidazol-1-yl)methyl]phenyl}methyl)acetamide] | 8
CC(=O)NCc1ccc(Cn2c(=O)[nH]c3ccc(C)cc32)cc1 [Example 65, N-(4-((6-methyl-2-oxo-2,3-dihydro-1H-benzo[d]imidazol-1-yl)methyl)benzyl)acetamide] | 24
CS(=O)(=O)NCc1ccc(Cn2c(=O)n(C(F)F)c3ccccc32)cc1 [Example 77, N-(4-((3-(difluoromethyl)-2-oxo-2,3-dihydro-1H-benzo[d]imidazol-1-yl)methyl)benzyl)methanesulfonamide] | 6
O=C1NCc2ccc(Cn3c(=O)[nH]c4ccccc43)cc21 [Example 10, 1-[(3-oxo-2,3-dihydro-1H-isoindol-5-yl)methyl]-1,3-dihydro-2H-benzimidazol-2-one] | 22
O=c1[nH]c2ccccc2n1Cc1ccc(Cc2nnco2)cc1 [Example 3, 1-(4-((1,3,4-oxadiazol-2-yl)methyl)benzyl)-1,3-dihydro-2H-benzo[d]imidazol-2-one] | 53
COc1ccccc1Cn1c(=O)[nH]c2ccc(C)cc21 [Example 86, 1-(2-methoxybenzyl)-6-methyl-1,3-dihydro-2H-benzo[d]imidazol-2-one] | 74
CCc1ccc2c(c1)[nH]c(=O)n2Cc1ccccc1 [Example 109, 1-benzyl-5-ethyl-1,3-dihydro-2H-benzo[d]imidazol-2-one] | 4940
O=C(Cc1ccc(Cn2c(=O)[nH]c3ccccc32)cc1)NC1CCC(F)C1 (centres unmarked) [Example 106, N-(3-fluorocyclopentyl)-2-(4-((2-oxo-2,3-dihydro-1H-benzo[d]imidazol-1-yl)methyl)phenyl)acetamide] | 38
CS(=O)(=O)NC[C@H]1CC[C@H](Cn2c(=O)[nH]c3ccccc32)CC1 [Example 98, N-(((1r,4r)-4-((2-oxo-2,3-dihydro-1H-benzo[d]imidazol-1-yl)methyl)cyclohexyl)methyl)methanesulfonamide] | 1570
O=C1CCCN1Cc1ncc(Cn2c(=O)[nH]c3ccccc32)cc1Cl [Example 25, 1-((5-chloro-6-((2-oxopyrrolidin-1-yl)methyl)pyridin-3-yl)methyl)-1,3-dihydro-2H-benzo[d]imidazol-2-one] | 47
CC(=O)N(C)Cc1ccc(Cn2c(=O)[nH]c3ccccc32)cc1 [Example 73, N-methyl-N-(4-((2-oxo-2,3-dihydro-1H-benzo[d]imidazol-1-yl)methyl)benzyl)acetamide] | 24
O=C1CCCN1Cc1c(F)cc(Cn2c(=O)[nH]c3ccccc32)cc1F [Example 23, 1-({3,5-difluoro-4-[(2-oxopyrrolidin-1-yl)methyl]phenyl}methyl)-1,3-dihydro-2H-benzimidazol-2-one] | 18
CN1CCN(c2cccc(Cn3c(=O)[nH]c4ccccc43)c2)CC1 [Example 80, 1-(3-(4-methylpiperazin-1-yl)benzyl)-1,3-dihydro-2H-benzo[d]imidazol-2-one] | 27
O=c1[nH]c2ccccc2n1CC1CCCOC1 (centres unmarked) [Example 59, 1-[(oxan-3-yl)methyl]-1,3-dihydro-2H-benzimidazol-2-one] | 2930
O=c1[nH]c2ccccc2n1Cc1ccc2c(c1)CCC2 [Example 55, 1-((2,3-dihydro-1H-inden-5-yl)methyl)-1,3-dihydro-2H-benzo[d]imidazol-2-one] | 0.8
CC(=O)NCc1sc(Cn2c(=O)[nH]c3ccccc32)cc1C [Example 40, N-((3-methyl-5-((2-oxo-2,3-dihydro-1H-benzo[d]imidazol-1-yl)methyl)thiophen-2-yl)methyl)acetamide] | 7

Compound | EC50 [nM]
O=C1CCCN1Cc1ccc(Cn2c(=O)[nH]c3ccccc32)cc1F [Example 9, 1-({3-fluoro-4-[(2-oxopyrrolidin-1-yl)methyl]phenyl}methyl)-1,3-dihydro-2H-benzimidazol-2-one] | 16
CS(=O)(=O)NCc1sc(Cn2c(=O)[nH]c3ccccc32)cc1Cl [Example 39, N-((3-chloro-5-((2-oxo-2,3-dihydro-1H-benzo[d]imidazol-1-yl)methyl)thiophen-2-yl)methyl)methanesulfonamide] | 5
CNC(=O)Cc1ccc(Cn2c(=O)[nH]c3ccc(F)cc32)cc1 [Example 67, 2-(4-((6-fluoro-2-oxo-2,3-dihydro-1H-benzo[d]imidazol-1-yl)methyl)phenyl)-N-methylacetamide] | 9
CNC(=O)C1CCc2cc(Cn3c(=O)[nH]c4ccccc43)ccc21 (single isomer, unassigned) [Example 46, N-methyl-5-((2-oxo-2,3-dihydro-1H-benzo[d]imidazol-1-yl)methyl)-2,3-dihydro-1H-indene-1-carboxamide] | 9
CC(=O)N[C@H]1CC[C@H](Cn2c(=O)[nH]c3ccccc32)CC1 [Example 99, N-((1r,4r)-4-((2-oxo-2,3-dihydro-1H-benzo[d]imidazol-1-yl)methyl)cyclohexyl)acetamide] | 2690
O=c1[nH]c2ccsc2n1Cc1ccccc1 [Example 113, 3-benzyl-1,3-dihydro-2H-thieno[2,3-d]imidazol-2-one] | 2850
N#Cc1n[nH]c2ccc(Cn3c(=O)[nH]c4ccccc43)cc12 [Example 42, 5-((2-oxo-2,3-dihydro-1H-benzo[d]imidazol-1-yl)methyl)-1H-indazole-3-carbonitrile] | 2
CC(C)(C)c1ccnc(Cn2c(=O)[nH]c3ccccc32)c1 [Example 63, 1-[(4-tert-butylpyridin-2-yl)methyl]-1,3-dihydro-2H-benzimidazol-2-one] | 4530
O=c1[nH]c2ccccc2n1CCN1CCCCC1 [Example 62, 1-[2-(piperidin-1-yl)ethyl]-1,3-dihydro-2H-benzimidazol-2-one] | 1240
O=c1[nH]c2ccccc2n1CCCCc1cccc2cccnc12 [Example 114, 1-(4-(quinolin-8-yl)butyl)-1,3-dihydro-2H-benzo[d]imidazol-2-one] | 107
CC(=O)NCc1sc(Cn2c(=O)[nH]c3ccccc32)cc1Cl [Example 38, N-((3-chloro-5-((2-oxo-2,3-dihydro-1H-benzo[d]imidazol-1-yl)methyl)thiophen-2-yl)methyl)acetamide] | 6
O=C1CCCN1Cc1ccc(Cn2c(=O)[nH]c3ccc(F)cc32)cc1 (single isomer, unassigned) [Example 84, 6-fluoro-1-(4-((2-oxopyrrolidin-1-yl)methyl)benzyl)-1,3-dihydro-2H-benzo[d]imidazol-2-one] | 10
O=C(c1cccc(Cn2c(=O)[nH]c3ccccc32)c1)N1CCC1 [Example 102, 1-(3-(azetidine-1-carbonyl)benzyl)-1,3-dihydro-2H-benzo[d]imidazol-2-one] | 8
CC(=O)NCc1ccc(Cn2c(=O)[nH]c3ccc(F)cc32)cc1 [Example 94, N-(4-((6-fluoro-2-oxo-2,3-dihydro-1H-benzo[d]imidazol-1-yl)methyl)benzyl)acetamide] | 9
N#CC1(c2cccc(Cn3c(=O)[nH]c4ccccc43)c2)CC1 [Example 35, 1-{3-[(2-oxo-2,3-dihydro-1H-benzimidazol-1-yl)methyl]phenyl} cyclopropane-1-carbonitrile] | 2
CCCS(=O)(=O)NCc1ccc(Cn2c(=O)[nH]c3ccc(F)cc32)cc1 [Example 95, N-(4-((6-fluoro-2-oxo-2,3-dihydro-1H-benzo[d]imidazol-1-yl)methyl)benzyl)propane-1-sulfonamide] | 6
